The source made the active and inactive calls. The rule behind the calls is not given here.
Experiments:
SH-SY5Y [1] = assay: Neuroprotective activity against potassium ion-induced cytotoxicity in human SH-SY5Y cells assessed as cell viability at 3 uM pretreated for 24 hrs measured 24 hrs post potassium ion challenge by MTT assay relative to control; format: functional; details: read-out: Activity
SH-SY5Y [2] = assay: Neuroprotective activity against rotenone/oligomycin A-induced oxidative stress in human SH-SY5Y cells assessed as cell viability at 0.3 uM pretreated for 24 hrs measured 24 hrs post rotenone/oligomycin challenge by MTT assay relative to control; format: functional; details: read-out: Activity
Hippocampus = assay: Neuroprotective activity against glutamate-induced neuronal cell death in Sprague-Dawley rat brain hippocampal slices assessed as cell viability at 10 uM incubated 4 hrs by MTT assay relative to control; format: functional; details: read-out: Activity
[3] = Neuroprotective activity against veratradine-induced neuronal cell death in bovine chromaffin cells assessed as cell viability at 10 uM after 24 hrs by LDH release assay relative to control; format: functional; details: Bos taurus, read-out: Activity
[4] = target: T1, Mitochondrial sodium/calcium exchanger protein (Homo sapiens) (UniProt Q6J4K2); assay: Inhibition of mitochondrial sodium/calcium exchanger in human HeLa cells assessed as reduction in decay rate of histamine-induced mitochondrial calcium at 3 uM after 36 to 48 hrs by aequorin staining based bioluminescence assay; format: cell-based
T1 sequence (whole entry): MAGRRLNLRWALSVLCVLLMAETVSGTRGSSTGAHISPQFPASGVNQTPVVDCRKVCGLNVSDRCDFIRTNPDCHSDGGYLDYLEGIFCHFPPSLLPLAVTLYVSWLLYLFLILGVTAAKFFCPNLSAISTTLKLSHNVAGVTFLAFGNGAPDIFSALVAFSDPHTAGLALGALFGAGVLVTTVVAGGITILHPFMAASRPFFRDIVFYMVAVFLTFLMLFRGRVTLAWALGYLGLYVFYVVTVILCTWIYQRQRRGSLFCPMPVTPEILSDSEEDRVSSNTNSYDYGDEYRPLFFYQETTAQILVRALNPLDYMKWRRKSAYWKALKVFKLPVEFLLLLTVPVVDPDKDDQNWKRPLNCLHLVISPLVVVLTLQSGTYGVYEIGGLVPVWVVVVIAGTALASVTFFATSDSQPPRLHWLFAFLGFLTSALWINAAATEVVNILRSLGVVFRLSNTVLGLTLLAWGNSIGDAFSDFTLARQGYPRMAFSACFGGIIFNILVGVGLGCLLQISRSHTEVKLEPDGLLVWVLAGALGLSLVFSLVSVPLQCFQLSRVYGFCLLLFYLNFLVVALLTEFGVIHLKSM

[5] = target: T1, Mitochondrial sodium/calcium exchanger protein (Homo sapiens); assay: Inhibition of mitochondrial sodium/calcium exchanger in human HeLa cells assessed as reduction in clearance of histamine-induced mitochondrial calcium at 3 uM after 36 to 48 hrs by aequorin staining based bioluminescence assay; format: cell-based
[6] = target: T2, Mitochondrial sodium/calcium exchanger protein (Homo sapiens, UniProt Q6J4K2); assay: Inhibition of mitochondrial sodium/calcium exchanger (unknown origin)
T2 sequence (Q6J4K2 whole entry): T1 sequence (whole entry)

Bos taurus [7] = species on record: Bos taurus; assay: Inhibition of voltage gated calcium channel in bovine chromaffin cells assessed as blockade of depolarizing pulse-induced whole cell inward calcium currents by perforated patch clamp method; format: cell-based
[8] = target: T1, Mitochondrial sodium/calcium exchanger protein (Homo sapiens); assay: Inhibition of mitochondrial sodium/calcium exchanger in human HeLa cells assessed as increase in maximal peak of histamine-induced mitochondrial calcium at 3 uM after 36 to 48 hrs by aequorin staining based bioluminescence assay; format: cell-based
Bos taurus [9] = species on record: Bos taurus; assay: Inhibition of sodium channel in bovine chromaffin cells assessed as blockade of inward sodium currents by perforated patch clamp method; format: cell-based
SH-SY5Y [10] = assay: Cytotoxicity in human SH-SY5Y cells assessed as ROS generation after 24 hrs by H2DCFDA/Hoechst dye based fluorescence assay; format: cell-based
[11] = target: T1, Mitochondrial sodium/calcium exchanger protein (Homo sapiens); assay: Inhibition of mitochondrial sodium/calcium exchanger in human HeLa cells assessed as increase in AUC of histamine-induced mitochondrial calcium at 3 uM after 36 to 48 hrs by aequorin staining based bioluminescence assay; format: cell-based
HeLa = assay: Cytotoxicity against human HeLa cells assessed as reduction in cell viability at 0.3 to 30 uM after 24 hrs by MTT assay; format: cell-based

Row | SMILES | viability at 3 µM (SH-SY5Y [1]) [%] | viability at 0.3 µM (SH-SY5Y [2]) [%] | viability at 10 µM (Hippocampus) [%] | viability at 10 µM [3] [%] | other results
1 | COC(=O)C1=C(C)NC(C)=C(C(=O)OC)C1c1ccccc1[N+](=O)[O-] [NIFEDIPINE] | 24 |  |  |  | 
2 | Cc1ccccc1C1SCC(=O)Nc2ncc(Cl)cc21 (stereo not given) | 20 | 21 | 27 | 14 | 
3 | O=C1CSC(c2ccccc2Cl)c2cc(Cl)cnc2N1 (stereo not given) | 33 | 11 | 27 | 22 | 
4 | CC(C)c1ccccc1C1SCC(=O)Nc2ncc(Cl)cc21 (stereo not given) | 28 | 19 | 33 | 49 | 
5 | O=C1CSC(c2ccccc2)c2cc(Cl)cnc2N1 (stereo not given) | 21 | 30 | 33 | 6 | inhibition [4]: Active
6 | CCOc1ccccc1C1SCC(=O)Nc2ncc(Cl)cc21 (stereo not given) | 28 | 26 | 11 | 17 | 
7 | O=C1CSC(c2ccccc2C(F)(F)F)c2cc(Cl)cnc2N1 (stereo not given) | 19 | 18 | 42 | 17 | 
8 | CC12CC3CC(C)(C1)CC(N)(C3)C2 [MEMANTINE] |  |  | 43 |  | 
9 | COc1ccccc1C1SCC(=O)Nc2ncc(Cl)cc21 (stereo not given) | 17 | 19 | 13 | 27 | 
10 | O=C1CSC(c2ccccc2Br)c2cc(Cl)cnc2N1 (stereo not given) | 30 | 21 | 28 | 23 | inhibition [4]: Active; inhibition [5]: inactive
11 | COc1ccc(C2SCC(=O)Nc3ncc(Cl)cc32)cc1 (stereo not given) | 10 | 23 | 34 | 27 | 
12 | O=C1CSC(c2ccccc2Cl)c2cc(Cl)ccc2N1 (stereo not given) | 36 | 18 | 37 | 76 | IC50 [6]: 1.6 µM; inhibition [4]: Active; inhibition (Bos taurus [7]; dose or concentration not given here): 37%
13 | COc1ccc2[nH]cc(CCNC(C)=O)c2c1 [MELATONIN] |  | 27 |  |  | 
14 | O=C1CSC(c2ccc(F)cc2)c2cc(Cl)cnc2N1 (stereo not given) | 27 | 24 | 20 | 22 | inhibition [8]: Active; inhibition [4]: Active; inhibition (Bos taurus [9]): inactive; Activity (SH-SY5Y [10]): Non-toxic; inhibition [11]: Active; inhibition (Bos taurus [7]): inactive; Activity (HeLa): Non-toxic

From ChEMBL document CHEMBL3763035, “Neuroprotective profile of pyridothiazepines with blocking activity of the mitochondrial Na(+)/Ca(2+) exchanger” (Eur J Med Chem, 2016)
